How the values were obtained:
[1] = In vitro stability in liver microsomes, mice; format: in vitro ADME; conditions: 90 min
Protocol: (§1) To assess the stability of [^18F]3, in vitro radioactivity analyses were conducted following 30-, 60- and 90 min coincubation of the radioligand in the serum and liver microsomes from mice, nonhuman primates (NHPs), and humans (Figure ).
(§2) Serum from mice, NHPs, and humans were warmed to room temperature, 15 MBq of [^18F]3 was added to 0.4 mL of each species’ serum. The mixtures were incubated at 37 °C and 0.1 mL of mixture was transferred into 0.2 mL cold acetonitrile at 30, 60, and 90 min. The samples were vortexed for 15 s and then centrifuged at 10,000g for 5 min. The supernatant was analyzed using analytical HPLC (Agilent 1100 series HPLC system on Phenomenex Luna C-18 column (4.6 × 150 mm), mobile phase 30% CH3CN/0.1% TFA in water, flow:1 mL/min). For microsomes studies, a mixture of microsomes (0.5 mg/mL), [^18F]3 (15 MBq), 0.35 mL of PBS, 0.05 mL of NADPH regenerating system A, and 0.01 mL of NADPH regenerating system B were incubated at 37 °C. The subsequent steps followed the same procedure as described above.

[2] = In vitro stability in liver microsomes, humans; format: in vitro ADME; conditions: 90 min
Protocol: as §1, §2

sigma-1 receptor = target: T1, sigma-1 receptor (Mus musculus, UniProt O55242); experiment: PET imaging in mice with NE-100 or ABT-239 blocking; format: in vivo
T1 construct: we conducted additional in vivo PET imaging studies using NE-100; from tissue; host or cells: brain of living mice
T1 sequence (O55242 whole entry): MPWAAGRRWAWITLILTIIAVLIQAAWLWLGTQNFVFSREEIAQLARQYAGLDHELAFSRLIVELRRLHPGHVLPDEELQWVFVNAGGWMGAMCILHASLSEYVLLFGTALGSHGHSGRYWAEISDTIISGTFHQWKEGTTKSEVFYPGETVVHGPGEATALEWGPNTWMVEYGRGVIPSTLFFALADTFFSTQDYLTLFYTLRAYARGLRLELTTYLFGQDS

[3] = In vitro stability in liver microsomes, NHPs; format: in vitro ADME, nonhuman primates (NHPs); conditions: 90 min
Protocol: as §1, §2

[4] = In vitro stability in serum, NHPs; format: in vitro ADME, nonhuman primates (NHPs); conditions: NHP serum, 37 °C, 30, 60 and 90 min
Protocol: as §1, §2

parent fraction in liver microsomes [1]: 78% | parent fraction in liver microsomes [2]: 95% | effect of ABT-239 preinjection on brain signal (sigma-1 receptor; ABT-239 (dual H3R and sigma-1 receptor antagonist) 3 mg/kg): near-complete signal blockade | effect of NE-100 blocking on brain uptake (sigma-1 receptor; NE-100 (selective sigma-1 receptor antagonist) 3 mg/kg): partial reduction | parent fraction in liver microsomes [3]: 85% | parent compound remaining intact in serum [4]: over 95%
Compound: O=C([C@H]1C[C@@H]1c1ccc([18F])cc1)N1CCN(C2CCCC2)CC1 [[^18F]3]

— PMC12362585, “Development and Preclinical Characterization of [^18F]H3-2406 and [^18F]H3-2407 for Positron Emission Tomography Imaging of the Histamine Subtype‑3 Receptor” (Journal of Medicinal Chemistry, 2025)
